In patent US9084778B2, “Topical compositions containing a retinoid of the oil-in-water emulsion type” (GALDERMA RESEARCH & DEVELOPMENT, priority 2012, dated 2015):

Legend:
[1] = Stability of compound A in its principal solvents; type: physicochemical
Excerpt: (2) Stability of compound A in its principal solvents:
(§1) The limits fixed for high stability are 95%-105% as a percentage relative to TO.

[2] = "Single time" cutaneous penetration study ex vivo (Franz cells, 16 h); type: in vitro ADME; details: ex vivo human skin, the 2 formulae evaluated
Procedure: Two types of cutaneous penetration studies were carried out ex vivo on human skin. In these studies compound A corresponds to 3″-tert-butyl-4′-(2-hydroxy-ethoxy)-4″-pyrrolidin-1-yl-[1,1′;3′,1″]-terphenyl-4-carboxylic acid.
“Single Time” Cutaneous Penetration Study:
In this study the Formula is applied for 16 hours to the surface of the skin. After the application COMPOUND A is quantified in the different compartments of the skin: stratum corneum, epidermis, dermis and receiving liquid according to the validated bioanalysis method.
The bioanalysis was conducted by mass spectrometry in tandem by positive electrospray ionisation using a Xevo device (Waters). The limit of quantification for compound A is 1 ng/mL.
The conditions of LC/MS/MS developed enabled up to 0.1% of the doe applied in each of the compartments to be detected (unabsorbed dose, stratum, epidermis, dermis and receiving liquid).
In this type of “single point” study the parameters considered are: • a. The distribution profile in the different compartments (qualitative data) • b. The penetration in the epidermis+dermis compartment (numerical data) FIG. 1

[3] = Stability of compound A in mixtures of excipients (solvent/surfactants) determined by HPLC; type: physicochemical
Excerpt: (3) Stability of compound A in mixtures of excipients (solvent/surfactants) determined by HPLC:
Studies of stability of compound A solubilised in oils (in which it is stable) in the presence of surfactants have been conducted:
as §1

[4] = Maximum solubility in fat phase excipients determined by HPLC; type: physicochemical
Excerpt: In order to obtain an oil in water emulsion containing a compound with the general formula (I) in the fat phase, pre-formulation studies have been conducted to provide evidence of the excipients allowing good solubilisation as well as good stability of the active ingredient.
(1) List of fat phase excipients in which the maximum solubility has been determined by HPLC:
The limit, below which the compounds of general formula (1) are considered non-solubilized, is 0.1% by weight.

In the case of `CC(C)(C)c1cc(-c2cc(-c3ccc(C(=O)O)cc3)ccc2OCCO)ccc1N1CCCC1` [Compound A, 3″-tert-butyl-4′-(2-hydroxy-ethoxy)-4″-pyrrolidin-1-yl-[1,1′;3′,1″]-terphenyl-4-carboxylic acid], the Stability results ([1]; COMPOUND A 0.005% in Miglyol 812N (Caprylic/capric triglycerides), 40° C.) is reported as “Stable/Ok 6 Months”, the Stability results ([1]; COMPOUND A 0.005% in Sweet almond oil, 40° C.) is reported as “Stable/Ok 6 Months” and the Stability results ([1]; COMPOUND A 0.05% in Arlacel 83V Pharma (Sorbitan Sesquioleate), 40° C.) is reported as “Stable/Ok 6 Months”. For the same compound, the Stability results ([1]; COMPOUND A 0.05% in Arlamol E (PPG-15 stearyl ether), 40° C.) was “Stable/Ok 6 Months”, the Stability results ([1]; COMPOUND A 0.05% in Arlasolve DMI (Dimethyl Isosorbide)) was “Unstable” and the Stability results ([1]; COMPOUND A 0.05% in Benzyl Alcohol) was “Unstable”. The Stability results ([1]; COMPOUND A 0.05% in Brij 30 (Laureth-4)) was “Unstable”, the Stability results ([1]; COMPOUND A 0.05% in Capryol 90 (Propylene glycol monocaprylate), 40° C.) was “Stable/Ok 6 Months” and the Stability results ([1]; COMPOUND A 0.05% in Crodamol DA (Diisopropyl Adipate), 40° C.) was “Stable/Ok 6 Months”. The Stability results ([1]; COMPOUND A 0.05% in Dipropylene Glycol Care (Dipropylene glycol)) was “Unstable”, the Stability results ([1]; COMPOUND A 0.05% in Eutanol G (Octyldodecanol)) was “Unstable” and the Stability results ([1]; COMPOUND A 0.05% in Labrafil M1944CS (Apricot Kernel Oil PEG-6 Ester), 40° C.) was “Stable/Ok 6 Months”. The Stability results ([1]; COMPOUND A 0.05% in Lauroglycol FCC (Propylene glycol laurate), 40° C.) was “Stable/Ok 6 Months”, the Stability results ([1]; COMPOUND A 0.05% in Marcol 152 (Parrafinum liquidum)) was “Unstable” and the Stability results ([1]; COMPOUND A 0.05% in Myritol PC (Propylene glycol dicaprylate/dicaprate)) was “Unstable”. The Stability results ([1]; COMPOUND A 0.05% in Phenoxetol (Phenoxyethanol), 40° C.) was “Stable/Ok 6 Months”, the “Compound A in the receiving liquid” value [2] was “not detected” and the Stability results ([3]; COMPOUND A 0.05% in Arlacel 165/Arlamol E, 40° C.) was “Stable/Ok 3 Months”. For the same compound, the Stability results ([3]; COMPOUND A 0.05% in Arlacel 165/Lauroglycol FCC) was “Unstable”, the Stability results ([3]; COMPOUND A 0.05% in Brij 721/Arlamol E, 40° C.) was “Stable/Ok 3 Months” and the Stability results ([3]; COMPOUND A 0.05% in Brij 721/Lauroglycol FCC, 40° C.) was “Stable/Ok 3 Months”. For the same compound, the Stability results ([3]; COMPOUND A 0.05% in Cremophor EL/Labrafil M1944CS) was “Unstable”, the Stability results ([3]; COMPOUND A 0.05% in Cremophor EL/Lauroglycol FCC) was “Unstable” and the Stability results ([3]; COMPOUND A 0.05% in Eumulgin B2/Arlamol E, 40° C.) was “Stable/Ok 3 Months”. For the same compound, the Stability results ([3]; COMPOUND A 0.05% in GlucateSS-Glucamate SSE-20/Arlamol E) was “Unstable”, the Stability results ([3]; COMPOUND A 0.05% in GlucateSS-Glucamate SSE-20/Lauroglycol FCC, 40° C.) was “Stable/Ok 3 Months” and the Stability results ([3]; COMPOUND A 0.05% in Simulsol M45/Crodamol DA) was “Unstable”. For the same compound, the Stability results ([3]; COMPOUND A 0.05% in Tween 80/Arlamol E) was “Unstable”, the Stability results ([3]; COMPOUND A 0.2% in Cremophor EL/Labrafil M1944CS) was “Unstable” and the Stability results ([3]; COMPOUND A 0.2% in Cremophor RH40/Crodamol DA) was “Unstable”. The Stability results ([3]; COMPOUND A 0.2% in Simulsol M45/Crodamol DA) was “Unstable”, the Stability results ([3]; COMPOUND A 0.2% in Tween 80/Hexylene glycol) was “Unstable” and the Stability results ([3]; COMPOUND A 0.2% in Tween 80/Lauroglycol FCC) was “Unstable”. It also gave a Maximum solubility ([4]; in Arlasolve DMI (Dimethyl Isosorbide)) of 0.400%, a Maximum solubility ([4]; in Benzyl alcohol (Benzyl Alcohol)) of 2.388% and a Maximum solubility ([4]; in Brij 30 (Laureth-4)) of 2.03%. For the same compound, the Maximum solubility ([4]; in Capryol 90 (Propylene glycol monocaprylate)) was 0.802%, the Maximum solubility ([4]; in Crodamol IPM (Isopropyl myristate)) was less than 0.1% and the Maximum solubility ([4]; in Hydrolite 5P (Pentylene glycol)) was 0.482%. It also gave a Maximum solubility ([4]; in Phenoxetol (Phenoxyethanol)) of 1.957%.
